# Laboratory results from ChEMBL document CHEMBL2375358, “Substituted thieno[2,3-d]pyrimidines as adenosine A2A receptor antagonists” (Bioorg Med Chem Lett, 2013).
# The source made the active and inactive calls. The rule behind the calls is not given here.
# Experiments:
# [1] = molecular target: Adenosine receptor A2a (Homo sapiens, UniProt P29274); test: Antagonist activity at human adenosine A2a receptor expressed in CHOK1 cells assessed as inhibition of NECA/forskolin-induced cAMP accumulation incubated for 15 mins prior to NECA/forskolin challenge measured after 5.5 to 6 hrs by beta-galactosidase reporter gene assay; assay type: functional, cell-based, CHO-K1
# [2] = molecular target: T1, Adenosine receptor A1 (Homo sapiens, UniProt P30542); test: Antagonist activity at human adenosine A1 receptor expressed in CHOK1 cells assessed as inhibition of R-PIA/forskolin-induced cAMP accumulation incubated for 15 mins prior to R-PIA/forskolin challenge measured after 5.5 to 6 hrs by beta-galactosidase reporter gene assay; assay type: functional, cell-based, CHO-K1
# T1 sequence (P30542 whole entry): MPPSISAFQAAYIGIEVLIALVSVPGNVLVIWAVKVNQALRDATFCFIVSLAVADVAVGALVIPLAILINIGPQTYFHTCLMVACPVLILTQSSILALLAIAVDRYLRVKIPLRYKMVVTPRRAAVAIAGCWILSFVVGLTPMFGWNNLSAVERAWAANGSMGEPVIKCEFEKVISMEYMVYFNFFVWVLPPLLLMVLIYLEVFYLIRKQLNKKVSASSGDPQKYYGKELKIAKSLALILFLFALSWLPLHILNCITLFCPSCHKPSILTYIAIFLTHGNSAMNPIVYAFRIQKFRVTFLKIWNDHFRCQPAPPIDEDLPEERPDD
# [3] = test system: Mus musculus; test: Antiparkinsonian activity in mouse assessed as reversal of haloperidol-induced catalepsy at 10 mg/kg, po after 1 hr; assay type: functional, organism-based; set-up: dose 10 mg/kg
# [4] = test system: Mus musculus; test: Antiparkinsonian activity in mouse assessed as reversal of haloperidol-induced catalepsy at 3 mg/kg, po after 1 hr; assay type: functional, organism-based; set-up: dose 3 mg/kg
# [5] = Cmax in mouse at 10 mg/kg, po; assay type: ADME, organism-based; set-up: dose 10 mg/kg, route oral; settings: in vivo
# [6] = test system: Mus musculus; test: Antiparkinsonian activity in po dosed mouse assessed as reversal of haloperidol-induced catalepsy after 1 hr; assay type: functional
# [7] = Clearance in mouse at 5 mg/kg, iv and 10 mg/kg, po; assay type: ADME, organism-based; settings: in vivo
# [8] = Half life in mouse at 10 mg/kg, po; assay type: ADME, organism-based; set-up: dose 10 mg/kg, route oral; settings: in vivo
# [9] = Cmax in rat at 10 mg/kg, po; assay type: ADME, organism-based; set-up: dose 10 mg/kg, route oral; settings: in vivo
# [10] = test system: Mus musculus; test: Antiparkinsonian activity in mouse assessed as reversal of haloperidol-induced catalepsy at 10 mg/kg, po after 2 to 4 hrs; assay type: functional, organism-based; set-up: dose 10 mg/kg
# [11] = Clearance in rat at 2 mg/kg, iv and 10 mg/kg, po; assay type: ADME, organism-based; settings: in vivo
# [12] = Oral bioavailability in rat at 10 mg/kg; assay type: ADME, organism-based; settings: in vivo
# [13] = Ratio of drug level in brain to plasma in rat at 2 mg/kg, iv and 10 mg/kg, po measured at 1 hr; assay type: ADME, organism-based; settings: read-out: BPR
# [14] = Half life in rat at 10 mg/kg, po; assay type: ADME, organism-based; set-up: dose 10 mg/kg, route oral; settings: in vivo
# [15] = Oral bioavailability in mouse at 10 mg/kg; assay type: ADME, organism-based; settings: in vivo
# Chain of Adenosine receptor A2a (P29274 whole entry): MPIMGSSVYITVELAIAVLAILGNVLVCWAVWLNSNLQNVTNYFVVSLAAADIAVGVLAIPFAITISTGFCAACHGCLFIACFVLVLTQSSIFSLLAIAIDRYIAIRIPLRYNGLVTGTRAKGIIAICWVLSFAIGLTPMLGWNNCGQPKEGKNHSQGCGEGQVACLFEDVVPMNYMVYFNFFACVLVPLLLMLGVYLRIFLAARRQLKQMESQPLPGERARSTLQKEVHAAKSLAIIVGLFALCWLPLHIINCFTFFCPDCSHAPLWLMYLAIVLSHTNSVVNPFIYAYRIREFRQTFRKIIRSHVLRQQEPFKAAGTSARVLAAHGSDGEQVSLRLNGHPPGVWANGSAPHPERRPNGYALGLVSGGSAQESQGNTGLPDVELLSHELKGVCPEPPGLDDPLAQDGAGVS
Ki [1] [nM],Ki [2] [nM],SMILES,other results
,> 1000,C=C(c1ccccc1)c1cc2c(N)nc(-c3cccc(C#N)c3)nc2s1,
1.4,24.8,N#Cc1cccc(-c2nc(N)c3cc(Cc4ccccc4Cl)sc3n2)c1,
> 168,1160,N#Cc1cncc(-c2nc(N)c3cc(Cc4ccccc4)sc3n2)c1,
40.1,439,Cc1ccc(-c2nc(N)c3cc(C(C)c4ccccc4)sc3n2)o1 (configuration not stated),
29.8,151,Nc1nc(-c2ccccc2)nc2sc(Cc3ccccc3)cc12,
,> 1000,Nc1nc(-c2cccc(C(F)(F)F)c2)nc2sc(Cc3ccccc3)cc12,
340,1770,CC(c1ccccc1)c1cc2c(N)nc(-c3cccc(C#N)c3)nc2s1 (configuration not stated),
207,237,Nc1nc(-c2ccccc2)nc2sc(-c3ccccc3)cc12,
26,> 1000,N#Cc1cccc(-c2nc(N)c3cc(Cc4ccccc4)sc3n2)n1,
7.3,< 16,N#Cc1cccc(-c2nc(N)c3cc(Cc4ccccc4F)sc3n2)c1,
100,1420,Cc1csc(-c2nc(N)c3cc(C(C)c4ccccc4)sc3n2)n1 (configuration not stated),
67.3,812,Nc1nc(-c2ccncc2)nc2sc(Cc3ccccc3)cc12,
11.4,222,N#Cc1cccc(-c2nc(N)c3cc(Cc4ccccc4)sc3n2)c1,Activity [4]: Active; ED50 [6]: < 1 mg/kg
67.3,520,Cc1ccc(-c2nc(N)c3cc(-c4ccccc4)sc3n2)o1,
,> 610,N#Cc1cccc(-c2nc(N)c3cc(C4(c5ccccc5)CC4)sc3n2)c1,
> 1000,,Nc1nc(-c2ccccc2)nc2sc(CCc3ccccc3)cc12,

# Second part, the compound before the results:
SMILES,Ki [1] [nM],Ki [2] [nM],other results
Cc1ccc(-c2nc(N)c3ccsc3n2)o1,109,493,
Nc1nc(-c2ccccc2)nc2sccc12,500,,
Cc1ccc(-c2nc(N)c3cc(Cc4ccccc4F)sc3n2)o1,3.7,< 16,
Cc1csc(-c2nc(N)c3cc(C4(c5ccccc5)CC4)sc3n2)n1,,> 610,
Nc1nc(-c2ccccn2)nc2sc(Cc3ccccc3)cc12,594,3710,
Cc1csc(-c2nc(N)c3cc(Cc4ccccc4)sc3n2)n1,,,Activity [3]: inactive
Nc1nc(-c2ncco2)nc2sc(Cc3ccccc3)cc12,4.7,310,Activity [4]: inactive
Cc1csc(-c2nc(N)c3cc(Cc4ccccc4Cl)sc3n2)n1,6.9,49.6,
Cc1ccc(-c2nc(N)c3cc(Cc4ccccc4)sc3n2)o1,,298,Cmax [5]: 5.01 µM; ED50 [6]: 2.2 mg/kg; Activity [3]: Active; clearance [7]: 69 mL/min/kg; half-life [8]: 18 min; Cmax [9]: 2.98 µM; Activity [10]: inactive; clearance [11]: 65 mL/min/kg; bioavailability [12]: 83%; Kp at 1 h [13]: 1.2; half-life [14]: 42 min; bioavailability [15]: 5%
Nc1nc(C2CCCO2)nc2sc(Cc3ccccc3)cc12 (configuration not stated),683,2950,
COc1ccccc1Cc1cc2c(N)nc(-c3ccc(C)o3)nc2s1,11,122,ED50 [6]: 0.8 mg/kg; Activity [3]: Active
Cc1ccc(-c2nc(N)c3cc(CCc4ccccc4)sc3n2)o1,203,,
Nc1nc(-c2ncccn2)nc2sc(Cc3ccccc3)cc12,17.1,,
CC(C)c1ccc(-c2nc(N)c3cc(Cc4ccccc4)sc3n2)o1,168,283,
C=C(c1ccccc1)c1cc2c(N)nc(-c3nc(C)cs3)nc2s1,,> 594,
Cc1ccc(-c2nc(N)c3cc(Cc4ccccc4Cl)sc3n2)o1,2.9,26.1,
Nc1nc(-c2cccc(Cl)n2)nc2sc(Cc3ccccc3)cc12,173,> 1000,
Cc1csc(-c2nc(N)c3cc(Cc4ccccc4F)sc3n2)n1,9.7,28.6,
Nc1nc(-c2cnco2)nc2sc(Cc3ccccc3)cc12,9,106,Activity [4]: inactive
